# From publication PMC7969932, “Population pharmacokinetics and dose optimization of vancomycin in neonates” (Scientific Reports, 2021)
# How the values were obtained:
# [1] = cited from earlier work
# From the text: (§1) There are numerous approaches to determining the adequate dosage regimen of vancomycin in neonates. To reflect PD and PK, area-under-the-curve concentrations versus time to the minimum inhibitory concentrations (AUC: MIC) can be used.
# [2] = Css,trough 15–20 μg/mL, neonates; cited from earlier work
# From the text: as §1
# [3] = Population pharmacokinetic modeling of vancomycin (NONMEM, one-compartment, first-order elimination; bootstrap, pc-VPC)
# Method: For the analysis of vancomycin population pharmacokinetic parameters, nonlinear mixed-effect modeling was performed using NONMEM ver. 7.3 (Icon Development Solutions, Ellicott City, MD, USA) in conjunction with Perl Speaks NONMEM (PsN ver. 4.4.0), Pirana (ver. 2.9.7), and Xpose (ver. 4.0) contained in the R software package (ver. 3.5.0; http://www.r-project.org). The population analysis was conducted using the first-order conditional estimation method (FOCE) with ε–η interaction (FOCE INTER). One- and two-compartment models with first-order elimination were evaluated as potential structural pharmacokinetic models. The fixed-effect parameters were total clearance (CL) and volume of distribution (V) for the one-compartment model, and total CL, central V (V1), peripheral V (V2), and inter-compartmental CL (Q) for the two-compartment model. Possible correlations among the interindividual variability for pharmacokinetic parameters in the model were assessed by the OMEGA BLOCK functionality. Allometric scaling was applied to CL and isometric scaling was applied to V to standardize the pharmacokinetic parameters. The final allometric model was as follows: 3 CL=θCL×(WTi/70)^0.75 4 V=θV×(WTi/70)^1 where CL is the clearance in the ith individual with body weight WTi; θCL is the typical CL value in a standardized adult (70 kg); and θv is the typical V in a standardized adult (70 kg). Interindividual variability in the PK parameters was analyzed using exponential and power models. Covariance between interindividual variability was estimated using a variance–covariance matrix. Residual variability was attempted using additive, proportional, and combined models.
# Covariates were investigated for the population modeling using linear, proportional, power, and exponential functions. […] When objective function value was decreased by at least 3.84 (χ^2-test, P < 0.05) from the structural model during the forward selection, the covariate was included in the model. All covariates that met the criteria were added to develop the full model. Then, during backward elimination, any covariate with an increase of at least 6.64 (χ^2-test, P < 0.01) was kept in the model. The categorical covariates tested were as follows: sex (where female = 1, male = 0), and types of delivery (where NsvD = 0, Csec = 1). The continuous covariates tested were body weight, blood urea nitrogen, SCr, protein, albumin, neutrophil, AST, ALT, CRP, WBC, height, PMA, PNA, CLcr, and gestational age.
# Model validation was performed via three methods: graphical diagnostics using a goodness-of-fit plot, bootstrapping, and a pc-VPC. Individual observed vs. individual-predicted values and conditional weighted residual vs. time or population-predicted values or individual-predicted values were plotted using R for NONMEM. Bootstrap datasets were repeated 1,000 times using the final model; the pc-VPC was performed as a diagnostic plot.
# [4] = 1000 resampled data sets (993 successful), per 70 kg
compound,measurement,setting,value
CN[C@H](CC(C)C)C(=O)N[C@H]1C(=O)N[C@@H](CC(N)=O)C(=O)N[C@H]2C(=O)N[C@H]3C(=O)N[C@H](C(=O)N[C@H](C(=O)O)c4cc(O)cc(O)c4-c4cc3ccc4O)[C@H](O)c3ccc(c(Cl)c3)Oc3cc2cc(c3O[C@@H]2O[C@H](CO)[C@@H](O)[C@H](O)[C@H]2O[C@H]2C[C@](C)(N)[C@H](O)[C@H](C)O2)Oc2ccc(cc2Cl)[C@H]1O [vancomycin],"Css,trough that could satisfy AUC0-24/MIC ≥ 400 with less toxicity",[1],5 to 15 µg/mL
same,Trough concentrations that can achieve AUC0-24/MIC ≥ 400,[1],around 10 mg/L
same,Nephrotoxicity,[2],higher nephrotoxicity
same,"θ1, typical value of clearance, Bootstrap median (95% CI)",[3]; [4],"2.07 (1.94, 2.21) L/h"
same,"θ4, typical value of volume of distribution, Bootstrap median (95% CI)",[3]; [4],"45.7 (41.6, 50.6) L"
same,"θ2, power of PMA/31.7 on clearance, Estimate (%RSE)",[3]; final model,0.795 (26%)
same,"θ3, power of CLcr/50.3 on clearance, Estimate (%RSE)",[3]; final model,0.741 (6%)
same,"θ4, typical value of volume of distribution (TVV), Estimate (%RSE)","[3]; standardized to 70 kg (power 1), final model",45.6 (5%) L
